Results on ten molecules are retold here after BindingDB's records for patent US11753403 (Pic Therapeutics, 2023).

The target in the test is T1, Eukaryotic translation initiation factor 4E [28-217] (Homo sapiens, UniProt P06730).
T1 construct: 28-217
T1 sequence (P06730 28-217): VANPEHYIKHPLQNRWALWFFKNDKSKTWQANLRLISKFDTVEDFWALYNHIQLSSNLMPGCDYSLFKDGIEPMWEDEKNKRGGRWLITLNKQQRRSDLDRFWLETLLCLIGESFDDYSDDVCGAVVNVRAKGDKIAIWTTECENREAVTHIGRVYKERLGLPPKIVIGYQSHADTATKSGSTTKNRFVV
The test is described as follows: Human eIF4E/4G2 Binding Assay. The protocol: Test compounds (3.43 mM stock in DMSO) were diluted 2-fold in series in DMSO (10 concentration points). Compound solutions (1.2 μl/well) were added into black 384-well polypropylene microplates (Matrix, Thermal Scientific). Twenty-two microliters per well of Assay Buffer (50 mM NaPi, pH 6.5, 50 mM KCl, 1 mM DTT and 0.5 mg/ml gamma globulin) and eight microliters per well of 82.5 nM purified eIF4E in Assay Buffer were added. The samples were incubated at room temperature (20-23° C.) for 4 hours. Biotin labeled 4G2 peptide (Ac-Lys-Gln-Tyr-Asp-Arg-Glu-Phe-Leu-Leu-Asp-Phe-Gln-Phe-Met-Pro-Lys(Aha-Bio)-NH2, 1.75 μM stock in DMSO) was diluted to 0.14 μM in Assay Buffer (without DTT) and 5 μl/well was added. The samples were incubated at room temperature for 20 min. Five microliters per well of 6.4 nM Eu-streptavidin (Eu-SA, Perkin Elmer) and 80 nM Allophycocyanin (APC)-anti His antibody (Columbia Biosciences) in Assay Buffer (without DTT) were then added and the samples were incubated at room temperature for 20 min.
The IC50 is the concentration that gives 50% inhibition. The low end stands for greater potency, the high end for weaker potency. Consider `CC(C)Cc1sc(N2CCN(C(=O)c3cccc(F)c3)C(C(=O)O)C2)nc1-c1ccc(Cl)c(Cl)c1` (stereo not given) [US11753403, Compound I-247], for which the IC50 is below 1 µM.

In turn, `CC(C)Cc1sc(Nc2cccc(C(=O)O)c2)nc1-c1ccc(Cl)c(Cl)c1` [US11753403, Compound I-142] yielded an IC50 below 1 µM.

`CC(C)Cc1sc(N(CCS(N)(=O)=O)Cc2ccccc2)nc1-c1ccc(Cl)c(Cl)c1` [US11753403, Compound I-98] had an IC50 above 10 µM.

`CC(C)Cc1sc(-c2ccc(NC(=O)c3ccccc3)c(C(=O)O)c2)nc1-c1ccc(Cl)c(Cl)c1` [US11753403, Compound I-237] showed an IC50 below 1 µM.

Consider `CC(C)Cc1sc(N(CCC(=O)NS(=O)(=O)CCCN)Cc2ccccc2)nc1-c1ccc(Cl)c(Cl)c1` [US11753403, Compound I-186], for which the IC50 was above 10 µM.

`NC(=O)c1sc(N(CCC(=O)O)Cc2ccccc2)nc1-c1ccc(Cl)c(Cl)c1` [US11753403, Compound I-124]: the IC50 is above 10 µM.

On to `O=C(O)CCN(Cc1ccccc1)c1nc(-c2ccc(Cl)c(Cl)c2)c(CN2CCCCC2)s1` [US11753403, Compound I-90], for which the 50% inhibitory concentration (IC50) is above 10 µM.

As to `CC(C)Cc1sc(NCC(Cc2cccc(C(=O)NCCN)c2)C(=O)O)nc1-c1ccc(Cl)c(Cl)c1` (stereo not given) [US11753403, Compound I-204], the IC50 is above 10 µM.

Turning to `CC(C)Cc1sc(N(CCC(=O)O)Cc2ccccc2)nc1-c1ccc(-c2ccc(F)cc2)c(Cl)c1` [US11753403, Compound I-104], the IC50 was below 1 µM.

Take `CC(C)Cc1sc(N(CCC(=O)NCCO)Cc2ccccc2)nc1-c1ccc(Cl)c(Cl)c1` [US11753403, Compound I-194]: the IC50 was above 10 µM.
